Results reported in article PMC8766756, “Insights on Cancer Cell Inhibition, Subcellular Activities, and Kinase Profile of Phenylacetamides Pending 1H-Imidazol-5-One Variants” (Frontiers in Pharmacology, 2022).
Where “and” joins values, the source holds several entries; their conditions need not be identical. Equal values may be shown once.

Key:
Assay in all cases: PamChip tyrosine kinase microarray
Assay type in all cases: biochemical
Settings in all cases: 0.1 µM, HL60 lysate
Src (P12931) = biological target: T1, Src (P12931) (Homo sapiens, UniProt P12931)
T1 construct: purchased PamGene (PamChip PTK array, Upstream Kinase Analysis)
How it was run: (§1)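 HL60 (AML) cell lysate was spiked with compound at 0.001, 0.01, 0.1, 1, 10 and 50 µM, or 2% v/v DMSO as control, then profiled in technical replicates on a tyrosine kinase peptide array of 196 phosphosites. Kinase activity was inferred from peptide-set changes using an upstream kinase tool.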

TXK (P42681) = biological target: T2, TXK (P42681) (Homo sapiens, UniProt P42681)
T2 construct: purchased PamGene (PamChip PTK array, Upstream Kinase Analysis)
T2 sequence (P42681 1-527): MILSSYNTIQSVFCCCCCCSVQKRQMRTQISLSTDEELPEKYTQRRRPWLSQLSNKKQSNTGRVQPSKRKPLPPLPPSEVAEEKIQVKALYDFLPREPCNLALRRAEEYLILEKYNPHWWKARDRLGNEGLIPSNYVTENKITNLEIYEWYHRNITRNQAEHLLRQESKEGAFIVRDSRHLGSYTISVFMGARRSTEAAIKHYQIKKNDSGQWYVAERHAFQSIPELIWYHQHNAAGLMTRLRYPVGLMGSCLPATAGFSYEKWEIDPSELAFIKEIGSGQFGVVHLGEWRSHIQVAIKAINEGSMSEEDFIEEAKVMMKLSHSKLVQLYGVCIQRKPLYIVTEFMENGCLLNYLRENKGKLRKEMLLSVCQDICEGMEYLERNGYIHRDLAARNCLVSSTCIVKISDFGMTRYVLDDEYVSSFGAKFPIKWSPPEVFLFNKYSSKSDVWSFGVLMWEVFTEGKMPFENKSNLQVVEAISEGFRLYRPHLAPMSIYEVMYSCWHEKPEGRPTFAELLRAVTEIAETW
How it was run: as §1

Fes (P07332) = biological target: T3, Fes (P07332) (Homo sapiens, UniProt P07332)
T3 construct: purchased PamGene (PamChip PTK array, Upstream Kinase Analysis)
How it was run: as §1

CCK4/PTK7 (Q13308) = biological target: T4, CCK4/PTK7 (Q13308) (Homo sapiens, UniProt Q13308)
T4 construct: purchased PamGene (PamChip PTK array, Upstream Kinase Analysis)
T4 sequence (Q13308 31-1070): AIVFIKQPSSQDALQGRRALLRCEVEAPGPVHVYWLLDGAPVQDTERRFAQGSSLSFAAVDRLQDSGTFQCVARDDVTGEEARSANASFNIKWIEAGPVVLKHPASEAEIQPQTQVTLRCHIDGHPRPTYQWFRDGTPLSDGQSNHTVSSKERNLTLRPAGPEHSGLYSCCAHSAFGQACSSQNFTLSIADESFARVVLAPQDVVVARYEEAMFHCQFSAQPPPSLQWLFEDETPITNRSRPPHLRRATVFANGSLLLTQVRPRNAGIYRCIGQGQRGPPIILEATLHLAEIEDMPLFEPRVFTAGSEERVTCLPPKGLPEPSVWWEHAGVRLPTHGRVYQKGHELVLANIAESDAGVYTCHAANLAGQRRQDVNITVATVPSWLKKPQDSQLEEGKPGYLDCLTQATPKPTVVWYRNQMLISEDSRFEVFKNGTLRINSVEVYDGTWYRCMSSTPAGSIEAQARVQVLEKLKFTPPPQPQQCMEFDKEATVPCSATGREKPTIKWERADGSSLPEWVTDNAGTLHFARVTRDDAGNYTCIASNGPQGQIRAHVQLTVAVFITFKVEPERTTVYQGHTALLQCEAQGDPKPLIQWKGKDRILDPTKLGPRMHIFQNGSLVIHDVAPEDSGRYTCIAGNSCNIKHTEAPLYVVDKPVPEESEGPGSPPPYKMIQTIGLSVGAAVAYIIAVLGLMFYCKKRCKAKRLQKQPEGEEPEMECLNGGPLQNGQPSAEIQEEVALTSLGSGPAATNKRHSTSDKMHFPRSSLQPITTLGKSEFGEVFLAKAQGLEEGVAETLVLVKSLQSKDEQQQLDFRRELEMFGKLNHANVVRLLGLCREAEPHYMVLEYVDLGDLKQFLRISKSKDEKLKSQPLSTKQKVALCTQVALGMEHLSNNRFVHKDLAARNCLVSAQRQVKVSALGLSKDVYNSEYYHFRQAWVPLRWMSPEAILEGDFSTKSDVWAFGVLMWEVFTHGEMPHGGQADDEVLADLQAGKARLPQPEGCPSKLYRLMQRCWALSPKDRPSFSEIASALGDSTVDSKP
How it was run: as §1

FmS/CSFR (P07333) = biological target: T5, FmS/CSFR (P07333) (Homo sapiens, UniProt P07333)
T5 construct: purchased PamGene (PamChip PTK array, Upstream Kinase Analysis)
How it was run: as §1

T1 sequence (P12931 whole entry): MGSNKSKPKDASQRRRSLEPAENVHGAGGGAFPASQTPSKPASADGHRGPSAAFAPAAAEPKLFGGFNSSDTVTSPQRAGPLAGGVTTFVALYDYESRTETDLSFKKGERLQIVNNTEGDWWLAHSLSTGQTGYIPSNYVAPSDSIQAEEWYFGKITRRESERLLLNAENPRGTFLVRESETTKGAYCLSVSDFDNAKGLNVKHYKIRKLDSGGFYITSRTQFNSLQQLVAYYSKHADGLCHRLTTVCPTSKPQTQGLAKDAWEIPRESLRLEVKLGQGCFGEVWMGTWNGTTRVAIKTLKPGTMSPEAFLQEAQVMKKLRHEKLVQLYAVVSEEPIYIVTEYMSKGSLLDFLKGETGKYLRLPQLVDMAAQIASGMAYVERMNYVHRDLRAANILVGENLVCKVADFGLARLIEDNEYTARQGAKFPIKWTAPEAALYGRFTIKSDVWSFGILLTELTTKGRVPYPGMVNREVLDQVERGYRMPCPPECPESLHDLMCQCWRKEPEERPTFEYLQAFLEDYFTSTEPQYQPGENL
T3 sequence (P07332 whole entry): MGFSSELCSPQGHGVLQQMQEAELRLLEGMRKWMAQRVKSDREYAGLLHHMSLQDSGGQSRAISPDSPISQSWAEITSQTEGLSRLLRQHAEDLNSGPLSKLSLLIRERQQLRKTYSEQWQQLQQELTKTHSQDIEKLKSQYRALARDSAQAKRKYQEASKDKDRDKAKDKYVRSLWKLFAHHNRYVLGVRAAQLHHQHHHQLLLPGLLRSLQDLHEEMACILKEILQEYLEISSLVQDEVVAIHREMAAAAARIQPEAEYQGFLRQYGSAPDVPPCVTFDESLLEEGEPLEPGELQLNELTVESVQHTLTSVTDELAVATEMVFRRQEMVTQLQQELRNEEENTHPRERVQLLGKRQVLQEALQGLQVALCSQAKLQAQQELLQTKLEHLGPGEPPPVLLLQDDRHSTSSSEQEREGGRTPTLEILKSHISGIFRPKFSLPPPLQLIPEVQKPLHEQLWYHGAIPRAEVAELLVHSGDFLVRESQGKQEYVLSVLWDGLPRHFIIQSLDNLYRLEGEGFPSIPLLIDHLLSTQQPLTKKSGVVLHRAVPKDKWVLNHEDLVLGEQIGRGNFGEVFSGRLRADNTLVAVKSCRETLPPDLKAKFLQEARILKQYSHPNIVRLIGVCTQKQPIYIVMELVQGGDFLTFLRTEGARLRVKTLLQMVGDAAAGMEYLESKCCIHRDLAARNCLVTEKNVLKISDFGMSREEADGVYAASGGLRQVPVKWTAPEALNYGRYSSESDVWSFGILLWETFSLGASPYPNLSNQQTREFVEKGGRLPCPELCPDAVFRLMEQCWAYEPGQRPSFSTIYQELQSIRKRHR
T5 sequence (P07333 20-972, one chain of several): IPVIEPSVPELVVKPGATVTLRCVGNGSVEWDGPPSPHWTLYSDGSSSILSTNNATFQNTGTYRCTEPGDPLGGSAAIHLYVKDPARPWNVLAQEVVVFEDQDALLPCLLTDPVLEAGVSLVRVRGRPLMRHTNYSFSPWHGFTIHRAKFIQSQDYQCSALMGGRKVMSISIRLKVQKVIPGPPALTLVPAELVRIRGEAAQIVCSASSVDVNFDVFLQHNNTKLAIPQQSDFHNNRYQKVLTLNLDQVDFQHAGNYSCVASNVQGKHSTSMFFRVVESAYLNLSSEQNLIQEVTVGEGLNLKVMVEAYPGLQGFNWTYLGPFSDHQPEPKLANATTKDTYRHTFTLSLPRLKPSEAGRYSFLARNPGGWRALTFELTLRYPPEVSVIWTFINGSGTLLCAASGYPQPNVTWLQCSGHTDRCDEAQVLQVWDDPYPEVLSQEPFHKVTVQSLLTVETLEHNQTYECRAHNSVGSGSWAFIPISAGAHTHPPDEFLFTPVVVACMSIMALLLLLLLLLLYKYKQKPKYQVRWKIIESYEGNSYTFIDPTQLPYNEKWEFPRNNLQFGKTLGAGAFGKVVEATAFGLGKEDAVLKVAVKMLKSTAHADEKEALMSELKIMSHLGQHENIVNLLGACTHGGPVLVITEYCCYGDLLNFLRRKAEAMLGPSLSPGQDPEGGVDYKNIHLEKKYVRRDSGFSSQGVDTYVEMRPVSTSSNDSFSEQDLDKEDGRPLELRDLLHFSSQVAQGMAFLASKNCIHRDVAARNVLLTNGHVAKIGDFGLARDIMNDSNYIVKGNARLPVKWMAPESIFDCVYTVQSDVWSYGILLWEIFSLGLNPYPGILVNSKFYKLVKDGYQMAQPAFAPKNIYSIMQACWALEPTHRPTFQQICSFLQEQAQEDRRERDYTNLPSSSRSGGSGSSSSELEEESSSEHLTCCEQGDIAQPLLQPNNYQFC

In the case of `COc1ccc(/C=C2\N=C(C)N(c3ccc(CC(=O)NCc4ccccc4)cc3)C2=O)cc1` [Compound 4c, (Z)-N-Benzyl-2-(4-(4-(4-methoxybenzylidene)-2-methyl-5-oxo-4,5-dihydro-1H-imidazol-1-yl)phenyl)acetamide], the “Mean Significance Score” value (Src (P12931)) is reported as 2.048, the “Mean Specificity Score” value (Src (P12931)) is reported as 0.05941 and the “Mean Final score (Kinase score)” value (Src (P12931); listed as KIM-161) is reported as 2.16 and 2.164. For the same compound, the “Mean Significance Score” value (TXK (P42681)) was 2.048, the “Mean Specificity Score” value (TXK (P42681)) was 0.6377 and the “Mean Final score (Kinase score)” value (TXK (P42681); listed as KIM-161) was 2.68. For the same compound, the “Mean Significance Score” value (Fes (P07332)) was 2.048, the “Mean Specificity Score” value (Fes (P07332)) was 1.058 and the “Mean Final score (Kinase score)” value (Fes (P07332); listed as KIM-161) was 3.13 and 3.128. For the same compound, the “Mean Significance Score” value (CCK4/PTK7 (Q13308)) was 1.989, the “Mean Specificity Score” value (CCK4/PTK7 (Q13308)) was 0.5841 and the “Mean Final score (Kinase score)” value (CCK4/PTK7 (Q13308); listed as KIM-161) was 2.60 and 2.5986. The “Mean Final score (Kinase score)” value (FmS/CSFR (P07333)) was 2.549, the “Mean Kinase Statistic” value (FmS/CSFR (P07333)) was -1.225 and the “Mean Significance Score” value (FmS/CSFR (P07333)) was 2.048. For the same compound, the “Mean Specificity Score” value (FmS/CSFR (P07333)) was 0.582.
